According to patent US11215608B2, “Methods of determining cellular chemosensitivity” (Dana-Farber Cancer Institute, Inc., priority 2006, dated 2022):
Ends that are not written are not given here. Peptide text beside a SMILES is read from it. * marks the point of attachment. Cbz = O=C(OCc1ccccc1)*; CH2F = FC*

Columns and labels:
[1] = test system: mitochondria from FL5.12 cells; test: Cytochrome c release from FL5.12 mitochondria; type: biochemical, murine
Description: (§1) Mitochondria were purified from liver and FL5.12cells as previously described (Letai et al., 2002). Mitochondria were purified from leukemia cells and 2B4 cells as previously described for FL5.12 cells. Mitochondria were incubated with treatments for 45 (mouse liver mitochondria) or 35 minutes (FL5.12, 2B4, and leukemic mitochondria). Release of cytochrome c was determined by a comparison of cytochrome c in the pellet and supernatant following treatment, quantitated by ELISA (R&D systems).
Mitochondria were isolated from wt FL5.12 cells and FL5.12-BCL-2 cells in the presence of IL-3, and from FL5.12-BCL-2 cells following 24 hours of IL-3 deprivation. […] Mitochondrial pellets were subjected to chemical crosslinking as previously described (Letai et al., 2002).

SU-DHL8 = test: BH3 profiling, cytochrome c release from lymphoma mitochondria; type: biochemical; conditions: SU-DHL-8
From the text: (§2) BH3 profiling allows for the prediction of response of cancer cells to anti-cancer therapeutics. For the purposes of this application, therapeutics can be divided into those that target anti-apoptotic BCL-2 proteins, and conventional agents. As a model test system, four lymphoma cell lines SU-DHL4, SU-DHL6, SU-DHL8, and SU-DHL 10 were employed. To perform BH3 profiling, the ability of a panel of sensitizer peptides to induce mitochondrial outer membrane permeabilization (MOMP) in mitochondria isolated from the lymphoma cells were tested. […] MOMP was measured by quantifying cytochrome c release by ELISA.

mouse liver mitochondria = test: Cytochrome c release from mouse liver mitochondria; type: biochemical; conditions: no tBID, also at 10-fold higher concentrations
Description: as §1, with “systems). When results of multiple experiments were averaged, results from solvent-only (DMSO) treatments values were subtracted from each, so that 0 release reflects that observed in solvent-only treatments.” for “systems).”
To test if selective binding corresponded to ability of individual BH3 domains to selectively antagonize antiapoptotic function, a purified mitochondrial system was constructed in which the critical apoptosis decision making molecular machinery was reconstituted. […] The multidomain proapoptotic function was provided by the BAK which resides in mouse liver Mitochondria; mouse liver mitochondria contain no detectable BAX protein (Letai et al., 2002). The dominant antiapoptotic function was provided by one of the five different recombinant antiapoptotic proteins used in the binding assays. BH3 peptides provided the sensitizer function.
Furthermore, when the panel of sensitizer BH3 peptides was tested in the presence of the antiapoptotic protein BCL-XL, there was still no cytochrome c release, formally ruling out the possibility that the BH3 peptides were somehow directly converting antiapoptotic proteins to a proapoptotic function (FIG. 2). To induce MOMP and cytochrome c release, there appears to be an absolute requirement for an activator function, here provided by the tBID protein.

leukemic mitochondria = test: Cytochrome c release from BCL-2 dependent leukemia mitochondria; type: biochemical, mouse
Description: as §1, with “systems). When results of multiple experiments were averaged, results from solvent-only (DMSO) treatments values were subtracted from each, so that 0 release reflects that observed in solvent-only treatments.” for “systems).”
Leukemia prone mice were generated as previously described (Letai, 2004). Mouse experimental protocols conform to the relevant regulatory standards and were approved by the Dana-Farber Cancer Institute Animal Care and Use Committee.
Previous results have described a mouse acute lymphocytic leukemia model in which c-myc is constitutively expressed and human BCL-2 is repressibly expressed. In this model, when BCL-2 transgene expression is eliminated by administration of doxycycline, the leukemic cells undergo apoptosis, resulting in rapid resolution of the leukemia (Letai, 2004). This provides an ideal in vivo model of a BCL-2 dependent cancer. It was hypothesized that dependence on BCL-2 was due to a similar mechanism to that of the IL-3 deprived FL5.12-BCL-2 cells—that is, a death signal was being initiated and carried by an activator BH3 molecule, but BCL-2 was binding it and preventing its interaction with multidomain proapoptotic proteins.
Mitochondria were isolated from leukemia cells and exposed to sensitizer BH3 peptides. Subsequently, cytochrome c release was measured. As an internal control, mitochondria were isolated from liver from the leukemic mice in parallel (FIG. 8A).

CLL mitochondria = test: Cytochrome c release from CLL mitochondria; type: biochemical, human; conditions: peptides or compounds 100 μM
Description: Alternatively, mitochondria were purified from freshly isolated CLL cells and cell lines by mechanical disruption followed by differential centrifugation, as previously described (Letai et al., 2002). Mitochondrial suspensions were made at 0.5 mg protein/ml, except for the case of ABT-737 and negative control enantiomer treatments, where 0.1 mg/ml was used. Release of cytochrome c was determined by a comparison of cytochrome c in the pellet and supernatant quantitated by ELISA (R&D systems).
CLL mitochondria were incubated with BH3 peptides as well as ABT-737 and negative control enantiomer (FIG. 14). […] This pattern is diagnostic of mitochondrial BCL-2 dependence. […] Since the BH3 peptides in the sensitizer panel lack the ability to directly activate BAX and BAK, these experiments also implicated the presence of an activator molecule constitutively sequestered by BCL-2 in CLL.

SU-DHL6 = test: BH3 profiling, cytochrome c release from lymphoma mitochondria; type: biochemical; conditions: SU-DHL 6
From the text: as §2
SU-DHL4 and SU-DHL6 a “primed” phenotype, based on the sensitivity to sensitizer BH3 peptides. […] SU-DHL-10 responded poorly to both sensitizer and activator peptides, indicating the loss of the effector arm.

CLL cells = test: Annexin-V death assay of freshly isolated primary CLL cells; type: cell-based, human
Description: Cells were stained with fluorescent conjugates of Annexin-V (BioVision) and propidium iodide (PI) and analyzed on a FACSCalibur machine (Becton-Dickinson).
15 ml of blood in heparin treated tubes was obtained from each anonymous CLL patient and processed without freezing. Equal volume of media (RPMI medium, 10% […], supplemented with […] and 10 mg/ml transferrin) was mixed with each sample and CLL cells isolated by centrifugation through Ficoll-PAQUE Plus (Amersham). Cells were washed twice in media and cultured at a density of 2.0×10^6 cells/ml for up to 48 hours. Samples for FIG. 11A were obtained from 24 consecutive patients identified with WBC >50,000/μl. All guidelines and regulations were followed in accordance with IRB protocols #99-224 (Dana-Farber Cancer Institute). Normal PBMC's were obtained from tubing discarded following platelet donation by anonymous normal donors and processed as above, except cultured without insulin and transferrin.
Experimental replicates were performed using lysates or mitochondria from different CLL samples. In main body, where a P value is given, it was obtained by using a two-tailed Students t-test, and P<0.05 was considered statistically significant. GraphPad Prism software was used to determine EC50 values by non-linear dose-response curve fitting and to perform Mann-Whitney nonparametric testing in Table 5.
Freshly isolated primary CLL cells were incubated with ABT-737 or negative control enantiomer. After 48 hours, death was assessed using Annexin-V staining.

[2] = FL5.12-BCL-2 cells deprived of IL-3 for 24 hours, peptides 10 μM

CC[C@H](C)[C@H](NC(=O)[C@H](CC(N)=O)NC(=O)[C@H](CCCNC(=N)N)NC(=O)[C@@H](NC(=O)[C@@H](NC(=O)[C@H](CC(=O)O)NC(=O)[C@H](CCC(=O)O)NC(=O)CCCCCNC(=S)Nc1ccc2c(c1)C(=O)OC21c2ccc(O)cc2Oc2cc(O)ccc21)[C@@H](C)CC)[C@@H](C)CC)C(=O)N[C@@H](C)C(=O)N[C@@H](CCCNC(=N)N)C(=O)N[C@@H](Cc1c[nH]cn1)C(=O)N[C@@H](CC(C)C)C(=O)N[C@@H](C)C(=O)N[C@@H](CCC(N)=O)C(=O)N[C@H](C(=O)NCC(=O)N[C@@H](CC(=O)O)C(=O)N[C@@H](CO)C(=O)N[C@@H](CCSC)C(=O)N[C@@H](CC(=O)O)C(=O)N[C@@H](CCCNC(=N)N)C(=O)O)C(C)C [BID]
cytochrome c release [1, 2]: sensitivity to 10 μM BID BH3 is restored
cytochrome c release ([1]; FL5.12-BCL-2 cells with IL-3, peptides 10 μM): BCL-2 overexpression inhibits release
cytochrome c release ([1]; wt FL5.12 cells with IL-3, peptides 10 uM): potently induce cytochrome c release
mitochondrial sensitivity to BH3 peptide (SU-DHL8): responding strongly

CC[C@H](C)[C@H](NC(=O)[C@H](CS)NC(=O)[C@H](C)NC(=O)[C@H](CC(C)C)NC(=O)[C@H](CCCNC(=N)N)NC(=O)[C@H](CC(C)C)NC(=O)[C@H](C)NC(=O)[C@H](CC(C)C)NC(=O)[C@H](C)NC(=O)[C@H](CC(=O)O)NC(=O)[C@H](CO)NC(=O)CNC(=O)[C@H](CCC(=O)O)NC(=O)[C@H](CCSC)NC(=O)CCCCCNC(=S)Nc1ccc2c(c1)C(=O)OC21c2ccc(O)cc2Oc2cc(O)ccc21)C(=O)NCC(=O)N[C@@H](CC(=O)O)C(=O)N[C@@H](CCC(=O)O)C(=O)N[C@@H](CCSC)C(=O)N[C@@H](CC(=O)O)C(=O)N[C@H](C(=O)O)C(C)C [BIK]
cytochrome c release by peptide alone (mouse liver mitochondria): none of the sensitizer BH3 peptides by themselves can induce cytochrome c release significantly above background
cytochrome c release [1, 2]: does not induce cytochrome c release
cytochrome c release (leukemic mitochondria): capable of inducing near total cytochrome c release

CC[C@H](C)[C@H](NC(=O)[C@H](CC(C)C)NC(=O)[C@H](CCC(N)=O)NC(=O)[C@H](CC(C)C)NC(=O)[C@H](CCCCN)NC(=O)[C@H](CCCNC(=N)N)NC(=O)[C@H](C)NC(=O)[C@@H](NC(=O)[C@H](CCC(N)=O)NC(=O)[C@@H](NC(=O)[C@H](CCC(=O)O)NC(=O)[C@H](C)NC(=O)[C@H](CCC(N)=O)NC(=O)[C@H](Cc1c[nH]cn1)NC(=O)CCCCCNC(=S)Nc1ccc2c(c1)C(=O)OC21c2ccc(O)cc2Oc2cc(O)ccc21)C(C)C)[C@@H](C)CC)C(=O)N[C@@H](C)C(=O)N[C@@H](CC(=O)O)C(=O)N[C@@H](CCC(N)=O)C(=O)N[C@@H](Cc1ccccc1)C(=O)N[C@@H](Cc1c[nH]cn1)C(=O)N[C@@H](CCCNC(=N)N)C(=O)O [BMF]
cytochrome c release by peptide alone (mouse liver mitochondria): none of the sensitizer BH3 peptides by themselves can induce cytochrome c release significantly above background
cytochrome c release (leukemic mitochondria): capable of inducing near total cytochrome c release
cytochrome c release (CLL mitochondria): induce cytochrome c release
mitochondrial sensitivity to BH3 peptide (SU-DHL6): strong

CC(C)C[C@H](NC(=O)[C@H](C)NC(=O)[C@H](CCCCN)NC(=O)[C@H](CC(C)C)NC(=O)[C@H](CCCNC(=N)N)NC(=O)[C@H](C)NC(=O)[C@H](C)NC(=O)[C@@H](NC(=O)[C@H](CC(C)C)NC(=O)[C@H](CCC(N)=O)NC(=O)[C@H](C)NC(=O)[C@H](C)NC(=O)[C@H](CO)NC(=O)[C@H](CO)NC(=O)CCCCCNC(=S)Nc1ccc2c(c1)C(=O)OC21c2ccc(O)cc2Oc2cc(O)ccc21)[C@@H](C)O)C(=O)NCC(=O)N[C@@H](CC(=O)O)C(=O)N[C@@H](CCC(=O)O)C(=O)N[C@@H](CC(C)C)C(=O)N[C@@H](Cc1c[nH]cn1)C(=O)N[C@@H](CCC(N)=O)C(=O)O [HRK]
cytochrome c release by peptide alone (mouse liver mitochondria): none of the sensitizer BH3 peptides by themselves can induce cytochrome c release significantly above background
cytochrome c release (CLL mitochondria): do not

CN(C)CC[C@@H](CSc1ccccc1)Nc1ccc(S(=O)(=O)NC(=O)c2ccc(N3CCN(Cc4ccccc4-c4ccc(Cl)cc4)CC3)cc2)cc1[N+](=O)[O-] [NCE]
EC50 (CLL cells; twenty-four CLL samples, 48 hours, read-out: mean EC50, apoptosis of CLL cells): 574 nM

COC(=O)C[C@H](NC(=O)[C@H](C)NC(=O)[C@@H](NC(=O)OCc1ccccc1)C(C)C)C(=O)CF [ZVAD-fmk] (Cbz-Val-Ala-Asp(OMe)-CH2F)
protection against ABT-737-induced death (CLL cells; co-treatment, 200 μM): protects against ABT-737-induced death

BADmut: point mutant (L→A) of BAD BH3, LWAAQRYGREARRMSDEFEGSFKGL (SEQ ID NO: 13), negative control (Chemically synthesized primer)
cytochrome c release (CLL mitochondria): do not

BH3 domain peptide of BNIP3-a, VVEGEKEVEALKKSADWVSD (SEQ ID NO: 9) (not fully specified (N-terminus))
cytochrome c release by peptide alone (mouse liver mitochondria): none of the sensitizer BH3 peptides by themselves can induce cytochrome c release significantly above background
cytochrome c release (CLL mitochondria): do not

second BH3 domain peptide of murine NOXA, PADLKDECAQLRRIGDKVNL (SEQ ID NO: 7) (not fully specified (N-terminus)) [NOXA B]
cytochrome c release by peptide alone (mouse liver mitochondria): none of the sensitizer BH3 peptides by themselves can induce cytochrome c release significantly above background
